Our source for the GI50 and TGI values is PubChem BioAssay (NCI).

What all share (assay): DTP human tumour cell line panel, 48 h
Assay [1] relates to A498 renal.
In assay [2] the test system is DU-145 prostate.
For assay [3], the system named is HCC-2998 colon.
For assay [4], the system named is HCT-15 colon.
Assay [5] has as its system MALME-3M melanoma.
Assay [6] deals with MCF7 breast.
In assay [7] the test system is SK-MEL-2 melanoma.
In assay [8] the test system is SNB-19 CNS.
Assay [9] concerns EKVX NSCLC.
Assay [10] relates to UACC-257 melanoma.

“And” between values parts separate entries of the source, which are not always exact repeats. Equal values may be shown once.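 Five concentrations, 48 hours, 96-well plates. Here, GI50 denotes the concentration required for 50% inhibition of growth. TGI marks complete inhibition of growth.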

For `COc1ccccc1CNC(=O)C1c2ccccc2C(=O)N(CC(C)C)C1c1cccs1` (stereo unspecified), the GI50 in assay [1] is 11.9 µM; in assay [2] it was 38400 nM; in assay [3], 47.8 µM; in assay [4], 20.8 µM; in [5], 20.7 µM; in assay [6], 27.2 µM. Further, the GI50 in assay [7] was 16.6 µM; in assay [8], 28.8 µM. In addition, the TGI in [1] is 51.5 µM; in assay [2] it was over 100 µM; in assay [3] it was over 100 µM; in assay [4] it was over 100 µM; in assay [5], 60.3 µM; in [6] it was over 100 µM. Besides, the TGI in assay [7] was 36.9 µM; in assay [8] it was over 100 µM.
`O=[N+]([O-])c1cc(Cl)cc2c1nc(NCCO)c1ccccc12`: the TGI in assay [1] is 56.4 µM; in assay [2], 15.9 µM; in assay [9], over 100 µM; in assay [4], over 100 µM; in [5], 57.1 µM; in assay [6], over 72.4 µM. Besides, the concentration for total growth inhibition (TGI) in assay [7] is 43.8 µM; in [8], over 100 µM; in assay [10] it was 54.8 µM.
Take `c1ccc2cc(OCC3CO3)c(OCC3CO3)cc2c1` (stereo unspecified): the TGI in assay [1] worked out at 24.7 µM; in assay [2] it was 16.7 µM; in assay [9] it was 24.1 µM; in assay [4], 16.6 µM; in assay [5], 36.5 µM; in [6], 10.1 µM. In addition, the TGI worked out at 29 µM in assay [7], 17.7 µM in [8] and 24.1 µM in assay [10].
For the molecule `CN(C)CCOc1nc2c3cccnc3cc(-c3cccc(Cl)c3)c2c2ncccc12`, the GI50 was 2.6 µM in assay [1]; 1840 nM in assay [2]; 1.7 µM in [9]; 1.43 µM in [3]; 1.05 µM in assay [4]; 1.28 µM in assay [6]. In addition, the results for the GI50 in [7], in assay [8] and in assay [10] were 1.9 µM, 1.6 µM and 1.89 µM, respectively. For the same molecule, the TGI was 10.8 µM in assay [1]; 4.26 µM in assay [2]; 4.62 µM in assay [9]; 2.93 µM in [3]; 2.7 µM in [4]; 2.68 µM in [6]. Further, the results for the TGI in assay [7], in assay [8] and in assay [10] were 3.79 µM, 4.32 µM and 3.6 µM, respectively.
On to `CCOC(=O)N1C/C(=C/c2ccc(OC)cc2)C(=O)/C(=C/c2ccc(OC)cc2)C1`, for which the GI50 in assay [1] was 3.13 µM; in [2], 4180 nM; in assay [3] it was 1.81 µM; in assay [4], 1.64 µM; in assay [5], 4.76 µM; in [6], 0.363 µM. Moreover, the values for the GI50 in assay [7], in assay [8] and in assay [10] were 13.5 µM, 3.87 µM and 2.88 µM, respectively. Also, the TGI was over 29 µM in [1]; over 100 µM in assay [2]; 3.38 µM in assay [3]; 4.91 µM in [4]; over 33.9 µM in assay [5]; 3.2 µM in [6]. Moreover, the TGI in assay [7] is over 56.3 µM; in assay [8] it was over 35 µM; in assay [10], 11.4 µM.
Turning to `Oc1ccc(Br)cc1/C=N/NC(=S)NC12CC3CC(CC(C3)C1)C2`, the GI50 in assay [1] was 2.18 µM; in [2], 2250 nM; in assay [3], 1.95 µM; in assay [4], 0.734 µM; in assay [5], 2.23 µM; in assay [6], 1.86 µM. For the same molecule, the GI50 in [7] was 2.09 µM; in assay [8] it was 2.87 µM; in assay [10], 2.11 µM. The TGI in [1] came out at 7.19 µM; in [2] it was 6.73 µM; in assay [3], 4.6 µM; in assay [4] it was 3.49 µM; in assay [5] it was 6.26 µM; in assay [6], 5.92 µM. For the same molecule, the TGI was 4.59 µM in [7], 12.4 µM in assay [8] and 6.96 µM in assay [10].
For `COc1ccc2[nH]c(-c3cccc(N(C)C)c3)cc(=O)c2c1`, the GI50 in assay [2] was 589 nM; in assay [9], 1.17 µM; in [3] it was 0.472 µM; in [4], 0.374 µM; in [7], 0.786 µM; in assay [10] it was 0.361 µM. Further, the TGI in assay [9] is 30.7 µM; in assay [3], 3.29 µM and 2.29 µM; in assay [5], over 100 µM; in [6], over 100 µM; in assay [10], over 100 µM.
`CC(F)(F)c1cc(F)ccc1-c1sc2cc(O)ccc2c1Oc1ccc(/C=C/C(=O)O)cc1`: the GI50 in assay [2] was 12700 nM; in [9], 10.6 µM; in [3], 12.7 µM; in assay [4] it was 4.13 µM; in assay [5] it was 11.6 µM; in assay [7], 4.43 µM. Moreover, the GI50 in assay [8] is 7.28 µM; in assay [10], 14.2 µM. The concentration for total growth inhibition (TGI) in assay [2] worked out at 28.5 µM; in [9] it was 39.6 µM; in [3], 30.6 µM; in [4], 18.2 µM; in [5] it was 44.4 µM; in [6] it was 15.2 µM. Also, the TGI turned out to be 20.8 µM in [7], 20.2 µM in [8] and 57.5 µM in [10].
Regarding `CC[C@@H](C)[C@H]([C@H](CC(=O)N1CCC[C@@H]1[C@@H](OC)[C@H](C)C(=O)N[C@H](Cc1ccccc1)c1nccs1)OC)N(C)C(=O)[C@H](NC(=O)[C@@H](C(C)C)N(C)C)C(C)C`, the GI50 in [2] is 0.0148 nM; in [3] it was 0.000425 µM; in assay [5], 0.000425 µM; in [7] it was under 0.0229 µM; in assay [10], 0.000425 µM and < 0.0589 µM. In addition, the TGI in [2] is 0.000106 µM; in assay [3], 0.00176 µM and 0.00234 µM; in [4], 0.0054 µM; in assay [6], over 100 µM; in [8], 0.00744 µM.
On to `COc1cc(OC)c(OC)cc1/C=C1\C=Cc2ccccc21`, for which the TGI in assay [2] was over 100 µM; in assay [9] it was over 100 µM; in assay [3], 28.4 µM; in assay [4] it was 61.4 µM; in assay [5] it was 56.8 µM; in assay [6], over 100 µM. The TGI in [10] was determined as 37.7 µM.
Take `O=C1C=CN(C2OC(CO)C(O)C2O)C(=O)C1` (stereo unspecified): the concentration for total growth inhibition (TGI) is over 2500 µM in assay [1]; over 819 µM in assay [2]; over 2500 µM in assay [9]; 625 µM and > 2500 µM in assay [3]; 625 µM and > 2500 µM in assay [4]; 625 µM and > 2500 µM in [6]. For the same molecule, the TGI in assay [7] was 625 µM and > 2500 µM; in assay [8], over 2500 µM; in assay [10], over 1940 µM. Besides, the GI50 in [4] was 54.6 µM; in assay [6], 4.63 µM; in [7], 115 µM and 1040 µM; in [8], > 625 µM and 819 µM.
